Experimental data as given in ChEMBL document CHEMBL1131702, “Synthesis and biological activity of KCB-328 and its analogues: novel class III antiarrhythmic agents with little reverse frequency dependence” (1999).

Assays:
[1] = species: Cavia porcellus; experiment: Effective refractory period of contractile response in isolated guinea-pig papillary muscles at 1 Hz and 1 uM.; format: functional, Muscle tissue
[2] = species: Cavia porcellus; experiment: Effective refractory period of contractile response in isolated guinea-pig papillary muscles at 3 Hz and 1 uM.; format: functional, Muscle tissue
[3] = Ratio of ERPc prolongation was measured as percent change at 3 Hz/1 Hz; format: functional
[4] = species: Cavia porcellus; experiment: Effect of 1 uM of compound, on action potential duration (APD) was determined in isolated guinea-pig papillary muscles at 1 Hz.; format: functional, Muscle tissue
[5] = species: Cavia porcellus; experiment: Effect of 1 uM of compound, on action potential duration (APD) was determined in isolated guinea-pig papillary muscles at 3 Hz; format: functional, Muscle tissue
[6] = Ratio of APD prolongation was measured as percent change at 3 Hz/1 Hz; format: functional

Compound	Delta ERPc [1] [%]	Delta ERPc [2] [%]	Ratio [3]	Delta APD90 [4] [%]	Delta APD90 [5] [%]	Ratio [6]
COc1ccc(CCN(C)CCOc2ccc(NS(C)(=O)=O)cc2)cc1OC	60.1	28.9	48	–	–	–
COc1ccc(CCN(C)CCOc2ccc(NS(C)(=O)=O)cc2OCc2ccccc2)cc1OC	26.3	30	114	–	–	–
COc1ccc(CCN(C)CCOc2ccc(NS(C)(=O)=O)cc2[N+](=O)[O-])cc1OC	33.3	25	75	–	–	–
Cc1cccc(CCN2CCC(C(=O)c3ccc(NS(C)(=O)=O)cc3)CC2)n1	41.8	30.2	71	–	–	–
COc1ccc(CCN(C)CCOc2ccc(NS(C)(=O)=O)cc2I)cc1OC	28.9	21.2	73	–	–	–
COc1cc(C)c(CCN(C)CCOc2ccc(NS(C)(=O)=O)cc2Cl)cc1OC	28	33.1	118	37.8	22.2	82
CN(CCOc1ccc(NS(C)(=O)=O)cc1)CCc1ccc(NS(C)(=O)=O)cc1 [DOFETILIDE]	49.9	30.8	65	45.6	26.8	59
COc1ccc(CCN(C)CCOc2ccc(NS(C)(=O)=O)cc2NC(C)=O)cc1OC	39.3	27.7	70	–	–	–
COc1cc(N)c(CCN(C)CCOc2ccc(NS(C)(=O)=O)cc2Cl)cc1OC	27.5	34.7	126	–	–	–
COc1ccc(CCN(C)CCOc2ccc(NS(C)(=O)=O)cc2N)cc1OC	31	32.6	105	33.3	28.6	86
COc1ccc(CCN(C)CCOc2ccc(NS(C)(=O)=O)cc2F)cc1OC	34.5	25.9	75	–	–	–
COc1ccc(CCN(C)CCOc2ccc(NS(C)(=O)=O)cc2Br)cc1OC	32.8	25.2	76	–	–	–
COc1ccc(CCN(C)CCOc2ccc(NS(C)(=O)=O)cc2Cl)cc1OC	32.2	30.8	95	–	–	–
COc1cc(N)c(CCN(C)CCOc2ccc(NS(C)(=O)=O)cc2-n2cccc2)cc1OC	39.4	24.7	62	–	–	–
COc1cc(CCN(C)CCOc2ccc(NS(C)(=O)=O)cc2Cl)c([N+](=O)[O-])cc1OC	29.4	36.2	123	–	–	–
COc1cc(C)c(CCN(C)CCOc2ccc(NS(C)(=O)=O)cc2-n2cccc2)cc1OC	32.1	26.3	81	–	–	–
COc1ccc(CCN(C)CCOc2ccc(NS(C)(=O)=O)cc2Nc2nccs2)cc1OC	43.4	36.8	84	–	–	–
COc1cc(Cl)c(CCN(C)CCOc2ccc(NS(C)(=O)=O)cc2Cl)cc1OC	22.4	17.8	79	–	–	–
COc1ccc(CCN(C)CCOc2ccc(NS(C)(=O)=O)cc2-n2cccc2)cc1OC	31.2	40.1	128	26.4	26.2	99
COc1ccc(CCN(C)CCOc2ccc(NS(C)(=O)=O)cc2C)cc1OC	28.9	27.2	94	–	–	–
